Measurements: patent publication US7947435B2, “Neuronal regeneration material screening method by ex vivo model” (Seoul National University Industry Foundation, priority 2007, dated 2011)

How the values were obtained:
[1] = system: spinal cord slices; assay: Immunofluorescent staining of lysolecithin-demyelinated spinal cord slices; type: cell-based, Sprague-Dawley rats; conditions: spinal cord slices treated with 0.5 mg/ml lysolecithin for 17 hours, compared with the control; FIG. 1
Description: (§1) <1-2> Preparation of Spinal Cord Tissue Slices Sprague-Dawley rats at 16 days old were anesthetized and the spinal cord was extracted. The spinal cord was put into ice-cold HBSS (Hanks balanced salt solution). Thoracic and lumbar spinal cords were cult into 400 μm in thickness by using a tissue chopper (McIlwain tissue chopper, The Mickle Laboratory Engineering Co. LTD, England). Several spinal cord slices were loaded on 0.4 μm filter (Millicell-CM filters, Millipore, USA) placed on a 6 well plate. The spinal cord slices were cultured in 1 ml of 25% horse serum (Invitrogen, USA) containing 50% MEM (Invitrogen, USA) supplemented with Earl's salts, 25% HBSS (Invitrogen, USA), 20 mM HEPES (Sigma, USA) and 6 mg/ml of D-glucose (Duchefa, Netherlands). The culture conditions were 5% CO2, 37° C. and the medium was replaced with a fresh medium twice a week. <1-3> Demyelination by Lysolecithin
(§2) The spinal cord slices were cultured in vitro (DIV, days in vitro) for 7 days. After treating 0.5 mg/ml of lysolecithin, the slices were cultured at 37° C. for 17 hours to induce demyelination of axons (Birgbauer et al., J Neurosci Res, 78, 157-166, 2004). After inducing demyelination, the medium containing lysolecithin was replaced with 1 ml of fresh medium. […]

[2] = system: spinal cord slices; assay: Histological analysis of spinal cord tissue slices (Luxol fast blue, H&E); type: cell-based, Sprague-Dawley rats; conditions: spinal cord slices treated with 0.5 mg/ml lysolecithin for 17 hours, compared with the control; FIG. 1
Description: as §1, §2

## lysolecithin
[1]
  MBP expression: decreased
[2]
  demyelination (myelin, Luxol fast blue staining): serious demyelination was observed
